Drawing on patent US4956376A, “Tetrazole carboxylic acids and esters and inhibition of blood platelet aggregation therewith” (Bristol-Myers Squibb Company, priority 1990, dated 1990), this text covers IC50 for four compounds.

In brackets after ≈: the same amount, converted by molar mass. Read-outs that look alike come from different tables or passages of the source.

The subject of this test is human platelet aggregation. In kind it is cell-based. The conditions noted are these: human platelet rich plasma, ADP 0.5 mcg/mL.
Where [1] appears, read: Table 1, read-out: Inhibition of Human Platelet Aggregation of Formula I Compounds (IC50) vs. ADP.
The mark [2] stands for this setting: Table 2, read-out: Inhibition of Human Platelet Aggregation of Formula II Compounds (IC50) Vs ADP.

Protocol: The aggregometer method of Born, C. […] Clin. Med. 1964, 64, 548-599 was used to assess the in vitro activity of the various compounds as to the inhibition of adenosine diphosphate (ADP) and collagen-induced platelet aggregation. The human volunteer donor's arm is cleansed with 70% ethyl alcohol. A sterile 20 ml syringe and needle are used to withdraw 20 ml of blood. The blood is immediately added to a test tube containing 3.8% sodium citrate to prevent clotting (1 part citrate to 9 parts blood).
Platelet rich plasma (PRP) was separated by centrifugation for 10 minutes at 1000 rpm (140 xg) from citrated (3.8%) human blood. All glassware used for preparation of PRP is silicon treated. ADP in final concentration of 0.5 mcg/mL or 0.05 mL of a collagen suspension prepared according to the method described by Evans, G., et al., J. Exp. Med., 1968, 128, 877-894 was used to induce aggregation. The various compounds tested were dissolved in dimethylsulfoxide (DMSO) so that 5 mcl added to the platelet rich plasma would yield the desired test concentration. Vehicle control trials were done and compared with aggregation induced in platelet rich plasma containing various concentrations of the test compounds. Dose response curves were obtained and Inhibitor Concentration (IC50) values calculated.

Broadly, the IC50 is the point on the concentration scale where inhibition reaches its midpoint. Regarding `O=C(O)CCCCCCCCn1nnc(C(c2ccccc2)c2ccccc2)n1` [Example 2, 5-(Diphenylmethyl)-2H-tetrazole-1-nonanoic acid], the IC50 under setting [1] was 4.2 µg/mL (≈ 10.7 µM). With `COC(=O)CCCCCCCCn1nnc(C(c2ccccc2)c2ccccc2)n1` [Example 1, Methyl 5-(diphenylmethyl)-2H-tetrazole-2-nonanoate], the IC50 under setting [1] is above 32 µg/mL.

Turning to `COC(=O)COc1cccc(CCn2nnc(C(c3ccccc3)c3ccccc3)n2)c1` [Example 3, Methyl [3-[2-[5-(diphenylmethyl)-2H-tetrazol-2-yl]ethyl]-phenoxy]acetate], the half-maximal inhibitory concentration (IC50) under setting [2] is 0.9 µg/mL (≈ 2.1 µM). Still for that read-out and setting: the value for `O=C(O)COc1cccc(CCn2nnc(C(c3ccccc3)c3ccccc3)n2)c1` [Example 4, [3-[2-[5-(Diphenylmethyl)-2H-tetrazol-2-yl]ethyl]phenoxy]-acetic Acid] was 1.4 µg/mL (≈ 3.38 µM).
